PubChem BioAssay AID330 (DTP/NCI, 2004)
Where “and” joins values, the source holds several entries; their conditions need not be identical. Equal values may be shown once. Toxic doses and inconclusive results are not listed. How the source made its calls: active means survival T/C of 150% or more; inactive means T/C below 125% in these data.

Test system: P388 leukemia ip, CD2F1 mice, survival T/C
Assay: NCI In Vivo Anticancer Drug Screen. Data for tumor model P388 Leukemia (intraperitoneal) in CD2F1 (CDF1) mice
Conditions: endpoint: median survival time, higher = longer survival
How it was run: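 Mice carrying the transplanted tumor received test compound or vehicle. Survival was recorded in each group, and the value is the treated-group measurement divided by that of the vehicle-treated control group.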

[1] = dose: 60.0 mg/kg/injection, schedule: Q01DX005 (ip), vehicle: saline
[2] = dose: 120.0 mg/kg/injection, schedule: Q01DX005 (ip), vehicle: saline
[3] = dose: 240.0 mg/kg/injection, schedule: Q01DX005 (ip), vehicle: saline
[4] = dose: 50.0 mg/kg/injection, schedule: Q01DX005 (ip), vehicle: saline with Tween-80
[5] = dose: 100.0 mg/kg/injection, schedule: Q01DX005 (ip), vehicle: saline with Tween-80
[6] = dose: 60.0 mg/kg/injection, schedule: Q01DX005 (ip), vehicle: saline with Tween-80
[7] = dose: 50.0 mg/kg/injection, schedule: Q01DX005 (ip), vehicle: Klucel (hydroxypropylcellulose) (HPC)
[8] = dose: 100.0 mg/kg/injection, schedule: Q01DX005 (ip), vehicle: Klucel (hydroxypropylcellulose) (HPC)
[9] = dose: 200.0 mg/kg/injection, schedule: Q01DX005 (ip), vehicle: Klucel (hydroxypropylcellulose) (HPC)
[10] = dose: 132.0 mg/kg/injection, schedule: Q01DX009 (ip), vehicle: saline with Tween-80
[11] = dose: 200.0 mg/kg/injection, schedule: Q01DX009 (ip), vehicle: saline with Tween-80
[12] = dose: 50.0 mg/kg/injection, schedule: Q01DX009 (ip), vehicle: saline
[13] = dose: 100.0 mg/kg/injection, schedule: Q01DX009 (ip), vehicle: saline
[14] = dose: 200.0 mg/kg/injection, schedule: Q01DX009 (ip), vehicle: saline
[15] = dose: 200.0 mg/kg/injection, schedule: Q01DX005 (ip), vehicle: saline with Tween-80
[16] = dose: 100.0 mg/kg/injection, schedule: Q04DX003 (ip), vehicle: saline
[17] = dose: 50.0 mg/kg/injection, schedule: Q04DX003 (ip), vehicle: suspension in saline
[18] = dose: 100.0 mg/kg/injection, schedule: Q04DX003 (ip), vehicle: suspension in saline
[19] = dose: 25.0 mg/kg/injection, schedule: Q04DX003 (ip), vehicle: saline
[20] = dose: 50.0 mg/kg/injection, schedule: Q04DX003 (ip), vehicle: saline
[21] = dose: 50.0 mg/kg/injection, schedule: Q01DX009 (ip), vehicle: saline with Tween-80
[22] = dose: 100.0 mg/kg/injection, schedule: Q01DX009 (ip), vehicle: saline with Tween-80
[23] = dose: 400.0 mg/kg/injection, schedule: Q01DX009 (ip), vehicle: saline with Tween-80

Measured: T/C

CC1C(=O)OCC1(C)O (stereo not drawn)
inactive: [1] 107 % of control | [2] 103 % of control | [3] 109 % of control

CCCCOC1CCC2(C)C(=CCC3C2CCC2(C)C(C(C)CCCC(C)C)CCC32)C1 (stereo not drawn)
inactive: dose: 100.0 mg/kg/injection, schedule: Q04DX003 (sc), vehicle: steriod suspending solution 104 % of control | dose: 200.0 mg/kg/injection, schedule: Q04DX003 (sc), vehicle: steriod suspending solution 100 % of control | dose: 400.0 mg/kg/injection, schedule: Q04DX003 (sc), vehicle: steriod suspending solution 100 % of control

CN1CC2(C)CCCC(C)(C1)C2O (stereo not drawn)
inactive: [4] 106 % of control | [5] 98 % of control

Cc1ccccc1N1C(=O)OC(C)C1=O (stereo not drawn)
inactive: dose: 100.0 mg/kg/injection, schedule: Q01DX001 (ip), vehicle: saline with Tween-80 97 % of control | dose: 200.0 mg/kg/injection, schedule: Q01DX001 (ip), vehicle: saline with Tween-80 109 % of control | dose: 400.0 mg/kg/injection, schedule: Q01DX001 (ip), vehicle: saline with Tween-80 94 % of control

NC(CCC(=O)NC(CSCC(=O)Nc1ccc(O)cc1)C(=O)NCC(=O)O)C(=O)O (stereo not drawn)
inactive: [1] 97 % of control | [2] 97 % of control | [3] 97 % of control

Cc1ccc(N2C(=O)CC3(CCCC3)C2=O)cc1[N+](=O)[O-]
inactive: dose: 100.0 mg/kg/injection, schedule: Q04DX002 (ip), vehicle: Klucel (hydroxypropylcellulose) (HPC) 106 % of control | dose: 200.0 mg/kg/injection, schedule: Q04DX002 (ip), vehicle: Klucel (hydroxypropylcellulose) (HPC) 105 % of control | dose: 400.0 mg/kg/injection, schedule: Q04DX002 (ip), vehicle: Klucel (hydroxypropylcellulose) (HPC) 97 % of control

COc1ccc2sc3cc(Cl)ccc3c(=O)c2c1
inactive: dose: 1.87 mg/kg/injection, schedule: Q01DX005 (ip), vehicle: saline with Tween-80 89 % of control | dose: 3.75 mg/kg/injection, schedule: Q01DX005 (ip), vehicle: saline with Tween-80 90 % of control | dose: 15.0 mg/kg/injection, schedule: Q01DX005 (ip), vehicle: saline with Tween-80 89 % of control and 90 % of control | [6] 88 % of control

O=c1[nH]cnc2ncnn12
inactive: dose: 25.0 mg/kg/injection, schedule: Q01DX009 (ip), vehicle: suspension in saline 97 % of control | dose: 50.0 mg/kg/injection, schedule: Q01DX009 (ip), vehicle: suspension in saline 93 % of control | dose: 200.0 mg/kg/injection, schedule: Q01DX009 (ip), vehicle: suspension in saline 90 % of control

Cc1cccc(C)c1OCc1nnc(SCC(=O)O)n1-c1c(C)cccc1C
inactive: [7] 102 % of control | [8] 99 % of control | [9] 93 % of control

OCC1OC(n2cnc3c(SCc4ccccc4)ncnc32)C(O)C1O (stereo not drawn)
inactive: dose: 88.0 mg/kg/injection, schedule: Q01DX009 (ip), vehicle: saline with Tween-80 100 % of control | [10] 95 % of control | [11] 86 % of control

CN(C)c1ccc(C(c2cc3c(cc2O)OCO3)N2CCCCC2)cc1 (stereo not drawn)
inactive: [6] 113 % of control | dose: 120.0 mg/kg/injection, schedule: Q01DX005 (ip), vehicle: saline with Tween-80 121 % of control

N#Cc1c(N)sc(=S)c2c1CCCC2
inactive: [12] 104 % of control | [13] 95 % of control | [14] 95 % of control

O=C1c2ccccc2-c2c1c1ccccc1c(=O)n2-c1cccnc1
inactive: [4] 111 % of control | [5] 101 % of control | [15] 97 % of control

NC(=O)NC1OC(CO)C(O)C(O)C1O (stereo not drawn)
inactive: [16] 95 % of control | dose: 200.0 mg/kg/injection, schedule: Q04DX003 (ip), vehicle: saline 95 % of control | dose: 400.0 mg/kg/injection, schedule: Q04DX003 (ip), vehicle: saline 100 % of control

C[C@]12CC[C@H]3[C@@H](CC[C@]4(O)C[C@@H](O)CC[C@]34CO)[C@@]1(O)CC[C@@H]2C1=CC(=O)OC1
inactive: dose: 25.0 mg/kg/injection, schedule: Q04DX003 (ip), vehicle: suspension in saline 97 % of control | [17] 98 % of control | [18] 97 % of control | dose: 200.0 mg/kg/injection, schedule: Q04DX003 (ip), vehicle: suspension in saline 100 % of control

OC1C2CC3CC(C2)CC1(C#CC1(O)C2CC4CC(C2)CC1C4)C3 (stereo not drawn)
inactive: dose: 25.0 mg/kg/injection, schedule: Q01DX009 (ip), vehicle: Klucel (hydroxypropylcellulose) (HPC) 100 % of control | dose: 50.0 mg/kg/injection, schedule: Q01DX009 (ip), vehicle: Klucel (hydroxypropylcellulose) (HPC) 100 % of control | dose: 100.0 mg/kg/injection, schedule: Q01DX009 (ip), vehicle: Klucel (hydroxypropylcellulose) (HPC) 93 % of control

Cc1cc2nc3ccc(=[N+](C)C)cc-3sc2cc1N
inactive: [19] 100 % of control and 108 % of control | [20] 117 % of control and 91 % of control | [16] 109 % of control and 123 % of control

CC(/C=C/c1ccccc1)=N\Nc1ccccc1
inactive: [21] 118 % of control | [22] 110 % of control and 112 % of control | [10] 100 % of control | [11] 100 % of control and 110 % of control and 121 % of control | dose: 300.0 mg/kg/injection, schedule: Q01DX009 (ip), vehicle: saline with Tween-80 107 % of control | [23] 106 % of control

NC(=O)Cc1noc2ccccc12
inactive: [23] 106 % of control and 88 % of control

COc1ccc(/C=C\c2cc(OC)c(OC)c(OC)c2)c(O)c1O
inactive: dose: 3.12 mg/kg/injection, schedule: Q01DX009 (ip), vehicle: saline + Tween-80 + alcohol 124 % of control | dose: 12.5 mg/kg/injection, schedule: Q01DX009 (ip), vehicle: saline + Tween-80 + alcohol 104 % of control and 97 % of control | dose: 22.0 mg/kg/injection, schedule: Q01DX009 (ip), vehicle: saline + alcohol 95 % of control | dose: 50.0 mg/kg/injection, schedule: Q01DX009 (ip), vehicle: saline + Tween-80 + alcohol 109 % of control

Nc1cc(C(F)(F)F)ccc1-c1ccn[nH]1
inactive: [12] 94 % of control | [13] 97 % of control | [14] 96 % of control

O=C1O/C(=C/c2cc(Cl)c(O)c(Cl)c2)c2ccccc21
inactive: dose: 100.0 mg/kg/injection, schedule: Q04DX002 (ip), vehicle: saline 96 % of control | dose: 200.0 mg/kg/injection, schedule: Q04DX002 (ip), vehicle: saline 99 % of control | dose: 400.0 mg/kg/injection, schedule: Q04DX002 (ip), vehicle: saline 99 % of control

CCOC(=O)C1(C)C(=O)C=C(c2ccccc2)CC1c1ccccc1 (stereo not drawn)
inactive: [4] 95 % of control | [5] 100 % of control | [15] 95 % of control

C/C(=N\NC(=S)N1CCN(c2ccccc2)CC1)c1cnccn1
inactive: dose: 1.56 mg/kg/injection, schedule: Q01DX005 (ip), vehicle: saline with Tween-80 103 % of control | dose: 3.13 mg/kg/injection, schedule: Q01DX005 (ip), vehicle: saline with Tween-80 105 % of control | dose: 6.25 mg/kg/injection, schedule: Q01DX005 (ip), vehicle: saline with Tween-80 111 % of control and 93 % of control | dose: 12.5 mg/kg/injection, schedule: Q01DX005 (ip), vehicle: saline with Tween-80 109 % of control

CCCCCCCCCCCCCCCCCC(=O)NC1=C(Cl)C(=O)c2ccccc2C1=O
inactive: [4] 94 % of control | [5] 94 % of control | [15] 91 % of control

CC(C)(O)c1cc(=O)n(Cc2ccccc2)[nH]1
inactive: [7] 106 % of control | [8] 109 % of control | [9] 108 % of control

O=C(O)CCCCCCC(=O)CCl
inactive: [19] 110 % of control | [20] 110 % of control | [17] 119 % of control | [16] 121 % of control | [18] 116 % of control

Cc1cc(Br)c(OC(=O)Nc2cccc(Cl)c2Cl)cc1C
inactive: dose: 12.5 mg/kg/injection, schedule: Q01DX009 (ip), vehicle: saline 88 % of control | dose: 25.0 mg/kg/injection, schedule: Q01DX009 (ip), vehicle: saline 99 % of control | [21] 88 % of control | [12] 119 % of control | [22] 114 % of control

CCOC(=O)CC1CC(=O)C(C(=O)OCC)C=C1C(=O)OCC (stereo not drawn)
inactive: [4] 94 % of control | [5] 98 % of control
